# Results taken from patent US20240368177A1, “5-AMINO-6,8-DIHYDRO-1H-FURO[3,4-d]PYRROLO[3,2-b]PYRIDINE-2-CARBOXAMIDE DERIVATIVES AS MTA-COOPERATIVE INHIBITORS OF PRMT5” (BeiGene Switzerland GmbH, priority 2023, published 2024).
# Tests used:
# [1] = system: HCT116-MTAP-KO; assay: Cell killing in HCT116 isogenic pair (Cell Titer-Glo viability), MTAP knock-out cells; assay type: cell-based, human; conditions: Homo sapiens, HCT-116, 144 h, 6 days incubation, 0-10 μM, * = more than 50% viability inhibition at tested concentration without a full curve
# Method in brief: (§1)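 HCT116 MTAP-knockout or mock-knockout (MTAP wildtype) cells in RPMI 1640 with 10% FBS were seeded overnight, then exposed to test compound at 0–10 μM final for 6 days at 37° C. Viability was measured by CellTiter-Glo luminescence and IC50 was fitted.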
# [2] = system: HCT116-mock-RNA-KO; assay: Cell killing in HCT116 isogenic pair (Cell Titer-Glo viability), mock knock-out cells with MTAP wildtype genotype; assay type: cell-based, human; conditions: Homo sapiens, HCT-116, 144 h, 6 days incubation, 0-10 μM
# Method in brief: as §1
SMILES,IC50 [1] [nM],IC50 [2] [nM]
"Nc1nc2cc(C(=O)N(Cc3ncc(C4CC4)cc3F)C3CCC3)[nH]c2c2c1COC2 [Example 69, 5-amino-N-cyclobutyl-N-((5-cyclopropyl-3-fluoropyridin-2-yl)methyl)-6,8-dihydro-1H-furo[3,4-d]pyrrolo[3,2-b]pyridine-2-carboxamide]",26,2700
"CC(C)[C@@H](C)N(Cc1ncc(C2CC2)cc1F)C(=O)c1cc2nc(N)c3c(c2[nH]1)COC3 [Example 70, (R)-5-amino-N-((5-cyclopropyl-3-fluoropyridin-2-yl)methyl)-N-(3-methylbutan-2-yl)-6,8-dihydro-1H-furo[3,4-d]pyrrolo[3,2-b]pyridine-2-carboxamide]",12,1180
"C[C@H]1OCc2c1c(N)nc1cc(C(=O)N(C)[C@H]3COCc4cc(Br)ccc43)[nH]c21 [Example 71, (R)-5-amino-N—((R)-7-bromoisochroman-4-yl)-N,6-dimethyl-6,8-dihydro-1H-furo[3,4-d]pyrrolo[3,2-b]pyridine-2-carboxamide]",728,6160
"C[C@H]1OCc2c1c(N)nc1cc(C(=O)N(C)[C@@H]3COCc4cc(Br)ccc43)[nH]c21 [Example 72, (R)-5-amino-N—((S)-7-bromoisochroman-4-yl)-N,6-dimethyl-6,8-dihydro-1H-furo[3,4-d]pyrrolo[3,2-b]pyridine-2-carboxamide]",8.2,1010
"CCN(C(=O)c1cc2nc(N)c3c(c2[nH]1)COC3)[C@@H]1COCc2cc(Cl)ccc21 [Example 73, (S)-5-amino-N-(7-chloroisochroman-4-yl)-N-ethyl-6,8-dihydro-1H-furo[3,4-d]pyrrolo[3,2-b]pyridine-2-carboxamide]",34,2490
"CCN(C(=O)c1cc2nc(N)c3c(c2[nH]1)COC3)[C@H]1COCc2cc(Cl)ccc21 [Example 74, (R)-5-amino-N-(7-chloroisochroman-4-yl)-N-ethyl-6,8-dihydro-1H-furo[3,4-d]pyrrolo[3,2-b]pyridine-2-carboxamide]",1070,> 10000
"CCN(C(=O)c1cc2nc(N)c3c(c2[nH]1)COC3)[C@@H]1COCc2cc(F)cc(F)c21 [Example 75, (S)-5-amino-N-(5,7-difluoroisochroman-4-yl)-N-ethyl-6,8-dihydro-1H-furo[3,4-d]pyrrolo[3,2-b]pyridine-2-carboxamide]",41,> 10000
"CCN(C(=O)c1cc2nc(N)c3c(c2[nH]1)COC3)[C@H]1COCc2cc(F)cc(F)c21 [Example 76, (R)-5-amino-N-(5,7-difluoroisochroman-4-yl)-N-ethyl-6,8-dihydro-1H-furo[3,4-d]pyrrolo[3,2-b]pyridine-2-carboxamide]",2110,> 10000
"CCN(C(=O)c1cc2nc(N)c3c(c2[nH]1)COC3)[C@@H]1COc2cc(C(F)(F)F)ccc21 [Example 77, (S)-5-amino-N-ethyl-N-(6-(trifluoromethyl)-2,3-dihydrobenzofuran-3-yl)-6,8-dihydro-1H-furo[3,4-d]pyrrolo[3,2-b]pyridine-2-carboxamide]",51,> 10000
"C[C@@H]1OC[C@H](N(C)C(=O)c2cc3nc(N)c4c(c3[nH]2)COC4)c2ccc(Br)cc21 [Example 78, 5-amino-N-((1S,4R)-7-bromo-1-methylisochroman-4-yl)-N-methyl-6,8-dihydro-1H-furo[3,4-d]pyrrolo[3,2-b]pyridine-2-carboxamide]",624,2930
"C[C@H]1OC[C@H](N(C)C(=O)c2cc3nc(N)c4c(c3[nH]2)COC4)c2ccc(Br)cc21 [Example 79, 5-amino-N-((1R,4R)-7-bromo-1-methylisochroman-4-yl)-N-methyl-6,8-dihydro-1H-furo[3,4-d]pyrrolo[3,2-b]pyridine-2-carboxamide]",525,3280
"C[C@@H]1OC[C@@H](N(C)C(=O)c2cc3nc(N)c4c(c3[nH]2)COC4)c2ccc(Br)cc21 [Example 80, 5-amino-N-((1S,4S)-7-bromo-1-methylisochroman-4-yl)-N-methyl-6,8-dihydro-1H-furo[3,4-d]pyrrolo[3,2-b]pyridine-2-carboxamide]",351,> 10000
"C[C@H]1OC[C@@H](N(C)C(=O)c2cc3nc(N)c4c(c3[nH]2)COC4)c2ccc(Br)cc21 [Example 81, 5-amino-N-((1R,4S)-7-bromo-1-methylisochroman-4-yl)-N-methyl-6,8-dihydro-1H-furo[3,4-d]pyrrolo[3,2-b]pyridine-2-carboxamide]",9.7,1020
"CN(C(=O)c1cc2nc(N)c3c(c2[nH]1)COC3)[C@@H]1COCc2cc(C(F)(F)F)cc(F)c21 [Example 82, (S)-5-amino-N-(5-fluoro-7-(trifluoromethyl)isochroman-4-yl)-N-methyl-6,8-dihydro-1H-furo[3,4-d]pyrrolo[3,2-b]pyridine-2-carboxamide]",13,1840
"C[C@H]1OC[C@@H](N(C)C(=O)c2cc3nc(N)c4c(c3[nH]2)CO[C@@H]4C)c2ccc(C(F)(F)F)cc21 [Example 83, (R)-5-amino-N,6-dimethyl-N-((1R,4S)-1-methyl-7-(trifluoromethyl)isochroman-4-yl)-6,8-dihydro-1H-furo[3,4-d]pyrrolo[3,2-b]pyridine-2-carboxamide]",7.2,556
"CN(C(=O)c1cc2nc(N)c3c(c2[nH]1)COC3)[C@@H]1COCc2cc(I)ccc21 [Example 84, (S)-5-amino-N-(7-iodoisochroman-4-yl)-N-methyl-6,8-dihydro-1H-furo[3,4-d]pyrrolo[3,2-b]pyridine-2-carboxamide]",10,2200
"CN(C(=O)c1cc2nc(N)c3c(c2[nH]1)COC3)[C@@H]1COCc2nc(C(F)(F)F)ccc21 [Example 85, (S)-5-amino-N-methyl-N-(2-(trifluoromethyl)-5,8-dihydro-6H-pyrano[3,4-b]pyridin-5-yl)-6,8-dihydro-1H-furo[3,4-d]pyrrolo[3,2-b]pyridine-2-carboxamide]",113,> 10000
"CN(C(=O)c1cc2nc(N)c3c(c2[nH]1)COC3)[C@H]1COCc2nc(C(F)(F)F)ccc21 [Example 86, (R)-5-amino-N-methyl-N-(2-(trifluoromethyl)-5,8-dihydro-6H-pyrano[3,4-b]pyridin-5-yl)-6,8-dihydro-1H-furo[3,4-d]pyrrolo[3,2-b]pyridine-2-carboxamide]",1900,> 10000
"CN(C(=O)c1cc2nc(N)c3c(c2[nH]1)COC3)[C@@H]1COCc2nc(C3CC3)ccc21 [Example 87, (S)-5-amino-N-(2-cyclopropyl-5,8-dihydro-6H-pyrano[3,4-b]pyridin-5-yl)-N-methyl-6,8-dihydro-1H-furo[3,4-d]pyrrolo[3,2-b]pyridine-2-carboxamide]",67,> 10000
"CN(C(=O)c1cc2nc(N)c3c(c2[nH]1)COC3)[C@H]1COCc2nc(C3CC3)ccc21 [Example 88, (R)-5-amino-N-(2-cyclopropyl-5,8-dihydro-6H-pyrano[3,4-b]pyridin-5-yl)-N-methyl-6,8-dihydro-1H-furo[3,4-d]pyrrolo[3,2-b]pyridine-2-carboxamide]",1410,> 10000
"CCN(C(=O)c1cc2nc(N)c3c(c2[nH]1)COC3)[C@@H]1CO[C@H](C)c2cc(C(F)(F)F)ccc21 [Example 89, 5-amino-N-ethyl-N-((1R,4S)-1-methyl-7-(trifluoromethyl)isochroman-4-yl)-6,8-dihydro-1H-furo[3,4-d]pyrrolo[3,2-b]pyridine-2-carboxamide]",4.1,446
"CC(=O)N1CC[C@@H](N(C)C(=O)c2cc3nc(N)c4c(c3[nH]2)COC4)c2ccc(C(F)(F)F)cc21 [Example 90, (R)—N-(1-acetyl-7-(trifluoromethyl)-1,2,3,4-tetrahydroquinolin-4-yl)-5-amino-N-methyl-6,8-dihydro-1H-furo[3,4-d]pyrrolo[3,2-b]pyridine-2-carboxamide]",29,5450
"CN(C(=O)c1cc2nc(N)c3c(c2[nH]1)COC3)[C@@H]1COC2(CC2)c2cc(C(F)(F)F)ccc21 [Example 91, (S)-5-amino-N-methyl-N-(7′-(trifluoromethyl)spiro[cyclopropane-1,1′-isochroman]-4′-yl)-6,8-dihydro-1H-furo[3,4-d]pyrrolo[3,2-b]pyridine-2-carboxamide]",32,3880
"CN(C(=O)c1[nH]c2c3c(c(N)nc2c1C#N)COC3)[C@@H]1COCc2cc(C(F)(F)F)ccc21 [Example 92, (S)-5-amino-3-cyano-N-methyl-N-(7-(trifluoromethyl)isochroman-4-yl)-6,8-dihydro-1H-furo[3,4-d]pyrrolo[3,2-b]pyridine-2-carboxamide]",49,2050
"CC[C@@H]1OC[C@@H](N(C)C(=O)c2cc3nc(N)c4c(c3[nH]2)COC4)c2ccc(C(F)(F)F)cc21 [Example 93, 5-amino-N-((1S,4S)-1-ethyl-7-(trifluoromethyl)isochroman-4-yl)-N-methyl-6,8-dihydro-1H-furo[3,4-d]pyrrolo[3,2-b]pyridine-2-carboxamide]",165,> 10000
"CC[C@H]1OC[C@@H](N(C)C(=O)c2cc3nc(N)c4c(c3[nH]2)COC4)c2ccc(C(F)(F)F)cc21 [Example 94, 5-amino-N-((1R,4S)-1-ethyl-7-(trifluoromethyl)isochroman-4-yl)-N-methyl-6,8-dihydro-1H-furo[3,4-d]pyrrolo[3,2-b]pyridine-2-carboxamide]",3.8,578
"CN(C(=O)c1cc2nc(N)c3c(c2[nH]1)COC3)[C@@H]1COCc2cc(C3CC3)cc(F)c21 [Example 95, (S)-5-amino-N-(7-cyclopropyl-5-fluoroisochroman-4-yl)-N-methyl-6,8-dihydro-1H-furo[3,4-d]pyrrolo[3,2-b]pyridine-2-carboxamide]",18,1780
